Measured values published in patent US9765037B2, “Compositions and methods for treating toxoplasmosis, cryptosporidiosis, and other apicomplexan protozoan related diseases” (University of Washington Through its Center for …, priority 2010, dated 2017).
Read-outs that look alike come from different tables or passages of the source.

Columns and labels:
TgCDPK1 = TgCDPK1 (Toxoplasma gondii, UniProt Q9BJF5); type: biochemical
CpCDPK1 = CpCDPK1 (Cryptosporidium parvum (strain Iowa II), UniProt A3FQ16); assay: biochemical; type: biochemical
Sequence of CpCDPK1 (A3FQ16 1-538): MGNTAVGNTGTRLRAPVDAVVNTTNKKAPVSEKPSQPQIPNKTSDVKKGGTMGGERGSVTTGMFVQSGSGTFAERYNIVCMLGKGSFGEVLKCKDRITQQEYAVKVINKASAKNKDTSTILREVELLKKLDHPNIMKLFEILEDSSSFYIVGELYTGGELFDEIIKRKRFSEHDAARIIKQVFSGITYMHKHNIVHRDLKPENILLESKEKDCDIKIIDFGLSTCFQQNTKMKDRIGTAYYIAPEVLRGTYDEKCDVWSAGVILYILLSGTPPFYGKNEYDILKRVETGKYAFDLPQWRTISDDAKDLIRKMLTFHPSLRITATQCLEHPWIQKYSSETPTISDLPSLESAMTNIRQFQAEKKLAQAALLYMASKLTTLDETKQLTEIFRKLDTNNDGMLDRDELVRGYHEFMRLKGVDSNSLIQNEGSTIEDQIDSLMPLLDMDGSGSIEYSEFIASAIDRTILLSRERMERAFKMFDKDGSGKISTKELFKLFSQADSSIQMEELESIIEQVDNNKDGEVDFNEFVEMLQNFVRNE

PfCDPK4 = PfCDPK4 (Plasmodium falciparum (isolate 3D7), UniProt Q8IBS5); assay: biochemical
PfCDPK1 = PfCDPK1 (Plasmodium falciparum (isolate 3D7), UniProt P62344); assay: biochemical
[1] = Table 8, read-out: IC50 (μM) CpCDPK1

Sequence of TgCDPK1 (Q9BJF5 1-507): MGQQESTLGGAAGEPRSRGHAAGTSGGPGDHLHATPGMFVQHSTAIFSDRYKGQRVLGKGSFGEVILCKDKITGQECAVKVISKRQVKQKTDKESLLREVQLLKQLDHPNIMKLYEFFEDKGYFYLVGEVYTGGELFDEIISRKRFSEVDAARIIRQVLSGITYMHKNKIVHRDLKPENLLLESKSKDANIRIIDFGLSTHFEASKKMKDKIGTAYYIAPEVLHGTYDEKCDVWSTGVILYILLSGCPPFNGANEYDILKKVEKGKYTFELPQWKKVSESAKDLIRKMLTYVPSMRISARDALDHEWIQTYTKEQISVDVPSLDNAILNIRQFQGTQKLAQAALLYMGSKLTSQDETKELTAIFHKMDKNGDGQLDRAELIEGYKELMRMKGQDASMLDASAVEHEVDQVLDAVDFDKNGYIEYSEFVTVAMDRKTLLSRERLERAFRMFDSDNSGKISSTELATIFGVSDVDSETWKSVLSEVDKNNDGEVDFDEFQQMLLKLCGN

CC(C)c1nc(-c2ccc3ccccc3c2)c2c(N)nccn12 [Compound 8, 3-isopropyl-1-(naphthalen-2-yl)imidazo[1,5-a]pyrazin-8-amine]
IC50 (TgCDPK1; read-out: IC50 (μM) TgCDPK1): 0.0048 µM | IC50 (CpCDPK1; [1]): 0.0078 µM | EC50 (PfCDPK4): 91 nM | EC50 (PfCDPK1): 156 nM

CC(C)(C)n1nc(-c2ccc(NC(=O)C3CCCCC3)cc2)c2c(N)ncnc21 [Compound 64, N-(4-(4-amino-1-tert-butyl-1H-pyrazolo[3,4-d]pyrimidin-3-yl)phenyl)cyclohexanecarboxamide]
IC50 (TgCDPK1; read-out: IC50 (μM) TgCDPK1): 0.143 µM | IC50 (CpCDPK1; [1]): 0.928 µM | EC50 (PfCDPK4): 1080 nM | EC50 (PfCDPK1): 128 nM

CC(C)n1nc(-c2cccc(OCc3ccccc3Cl)c2)c2c(N)ncnc21 [Compound 21, 3-(3-(2-chlorobenzyloxy)phenyl)-1-isopropyl-1H-pyrazolo[3,4-d]pyrimidin-4-amine]
IC50 (TgCDPK1; read-out: IC50 (μM) TgCDPK1): > 3 µM | IC50 (CpCDPK1; [1]): > 3 µM

CC(C)(C)n1nc(-c2ccc(NC(=O)Cc3ccccc3)cc2)c2c(N)ncnc21 [Compound 66, N-(4-(4-amino-1-tert-butyl-1H-pyrazolo[3,4-d]pyrimidin-3-yl)phenyl)-2-phenylacetamide]
IC50 (TgCDPK1; read-out: IC50 (μM) TgCDPK1): 0.178 µM | IC50 (CpCDPK1; [1]): 2.02 µM | EC50 (PfCDPK4): 2180 nM | EC50 (PfCDPK1): 287 nM

CC(C)(C)n1nc(-c2ccc(NC(=O)CCl)cc2)c2c(N)ncnc21 [Compound 58, N-(4-(4-amino-1-tert-butyl-1H-pyrazolo[3,4-d]pyrimidin-3-yl)phenyl)-2-chloroacetamide]
IC50 (TgCDPK1; read-out: IC50 (μM) TgCDPK1): 0.136 µM | IC50 (CpCDPK1; [1]): 0.588 µM | EC50 (PfCDPK4): 2430 nM | EC50 (PfCDPK1): 214 nM

COc1cc2ccccc2cc1-c1nn(C(C)C)c2ncnc(N)c12 [Compound 7s, 1-isopropyl-3-(3-methoxynaphthalen-2-yl)-1H-pyrazolo[3,4-d]pyrimidin-4-amine]
IC50 (TgCDPK1; read-out: IC50 (μM) TgCDPK1): 0.863 µM | IC50 (TgCDPK1; read-out: TgCDPK1 IC50): 0.9 µM | IC50 (CpCDPK1; [1]): 0.591 µM | IC50 (CpCDPK1; read-out: CpCDPK1 IC50): 0.6 µM

CC(=O)N1CCC(CCn2nc(Cc3cccc4ccccc34)c3c(N)ncnc32)CC1 [Compound 5l, 1-(4-(2-(4-amino-3-(naphthalen-1-ylmethyl)-1H-pyrazolo[3,4-d]pyrimidin-1-yl)ethyl)piperidin-1-yl)ethanone]
IC50 (TgCDPK1; read-out: IC50 (μM) TgCDPK1): 0.104 µM | IC50 (CpCDPK1; read-out: IC50 (μM) CpCDPK1): 0.179 µM

C#CCn1nc(Cc2cccc3ccccc23)c2c(N)ncnc21 [Compound 5b, 3-(naphthalen-1-ylmethyl)-1-(prop-2-ynyl)-1H-pyrazolo[3,4-d]pyrimidin-4-amine]
IC50 (TgCDPK1; read-out: IC50 (μM) TgCDPK1): 0.086 µM | IC50 (CpCDPK1; read-out: CpCDPK1 IC50): 0.13 µM

CC(C)(C)C(=O)Nc1ccc(-c2nn(C(C)(C)C)c3ncnc(N)c23)cc1 [Compound 60, N-(4-(4-amino-1-tert-butyl-1H-pyrazolo[3,4-d]pyrimidin-3-yl)phenyl)pivalamide]
IC50 (TgCDPK1; read-out: IC50 (μM) TgCDPK1): 0.0666 µM | IC50 (CpCDPK1; [1]): 0.929 µM | EC50 (PfCDPK4): 326 nM | EC50 (PfCDPK1): 66.4 nM

CC(C)CC(=O)Nc1ccc(-c2nn(C(C)(C)C)c3ncnc(N)c23)cc1 [Compound 62, N-(4-(4-amino-1-tert-butyl-1H-pyrazol[3,4-d]pyrimidin-3-yl)phenyl)-3-methylbutanamide]
IC50 (TgCDPK1; read-out: IC50 (μM) TgCDPK1): 0.0409 µM | IC50 (CpCDPK1; [1]): 0.692 µM | EC50 (PfCDPK4): 140 nM | EC50 (PfCDPK1): 37.7 nM

CS(=O)(=O)N1CCC(Cn2nc(Cc3cccc4ccccc34)c3c(N)ncnc32)CC1 [Compound 5q, 1-((1-(methylsulfonyl)piperidin-4-yl)methyl)-3-(naphthalen-1-ylmethyl)-1H-pyrazolo[3,4-d]pyrimidin-4-amine]
IC50 (TgCDPK1; read-out: IC50 (μM) TgCDPK1): 0.563 µM | IC50 (CpCDPK1; [1]): 0.691 µM | IC50 (CpCDPK1; read-out: CpCDPK1 IC50): 0.7 µM

CC(C)n1nc(-c2cccc3c2sc2ccccc23)c2c(N)ncnc21 [Compound 7x, 3-(dibenzo[b,d]thiophen-4-yl)-1-isopropyl-1H-pyrazolo[3,4-d]pyrimidin-4-amine]
IC50 (TgCDPK1; read-out: IC50 (μM) TgCDPK1): > 3 µM | IC50 (TgCDPK1; read-out: TgCDPK1 IC50): > 3 µM | IC50 (CpCDPK1; Table 4, average of three assays ± (SEM), read-out: CpCDPK1 IC50): > 3 µM | IC50 (CpCDPK1; [1]): > 3 µM

CSc1cccc(-c2nn(C(C)C)c3ncnc(N)c23)c1 [Compound 7ab, 1-isopropyl-3-(3-(methylthio)phenyl)-1H-pyrazolo[3,4-d]pyrimidin-4-amine]
IC50 (TgCDPK1; read-out: IC50 (μM) TgCDPK1): 0.056 µM | IC50 (CpCDPK1; read-out: IC50 (μM) CpCDPK1): 0.121 µM | inhibition at 3 µM (PfCDPK4; read-out: PfCDPK4 (% inhibition @ 3 uM)): 79% | inhibition at 3 µM (PfCDPK1; read-out: PfCDPK1 (% inhibition @ 3 uM)): 85%

CC(C)c1ccc(-c2nn(C(C)C)c3ncnc(N)c23)cc1 [Compound 7d, 1-isopropyl-3-(4-isopropylphenyl)-1H-pyrazolo[3,4-d]pyrimidin-4-amine]
IC50 (TgCDPK1; read-out: IC50 (μM) TgCDPK1): 0.048 µM | IC50 (CpCDPK1; [1]): 0.213 µM | IC50 (CpCDPK1; read-out: CpCDPK1 IC50): 0.21 µM

CC(C)n1nc(-c2cccnc2)c2c(N)ncnc21 [Compound 16, 1-isopropyl-3-(pyridin-3-yl)-1H-pyrazolo[3,4-d]pyrimidin-4-amine]
IC50 (TgCDPK1; read-out: IC50 (μM) TgCDPK1): 0.961 µM | IC50 (CpCDPK1; [1]): > 3 µM

CC(C)n1nc(Cc2ccc3ccccc3c2)c2c(N)ncnc21 [Compound 14, 1-isopropyl-3-(naphthalen-2-ylmethyl)-1H-pyrazolo[3,4-d]pyrimidin-4-amine]
IC50 (TgCDPK1; read-out: IC50 (μM) TgCDPK1): 0.627 µM | IC50 (CpCDPK1; [1]): 0.953 µM

Cc1ccc(-c2nn(C(C)C)c3ncnc(N)c23)cc1C [Compound 7h, 3-(3,4-dimethylphenyl)-1-isopropyl-1H-pyrazolo[3,4-d]pyrimidin-4-amine]
IC50 (TgCDPK1; read-out: IC50 (μM) TgCDPK1): 0.009 µM | IC50 (CpCDPK1; read-out: CpCDPK1 IC50): 0.022 µM

CS(=O)(=O)N1CCC(CCn2nc(Cc3cccc4ccccc34)c3c(N)ncnc32)CC1 [Compound 5r, 1-(2-(1-(methylsulfonyl)piperidin-4-yl)ethyl)-3-(naphthalen-1-ylmethyl)-1H-pyrazolo[3,4-d]pyrimidin-4-amine]
IC50 (TgCDPK1; read-out: IC50 (μM) TgCDPK1): 0.117 µM | IC50 (CpCDPK1; [1]): 0.194 µM | IC50 (CpCDPK1; read-out: CpCDPK1 IC50): 0.2 µM

Nc1ncnc2c1c(Cc1cccc3ccccc13)nn2Cc1c[nH]cn1 [Compound 31, 1-((1H-imidazol-4-yl)methyl)-3-(naphthalen-1-ylmethyl)-1H-pyrazolo[3,4-d]pyrimidin-4-amine]
IC50 (TgCDPK1; read-out: IC50 (μM) TgCDPK1): 0.117 µM | IC50 (CpCDPK1; [1]): 0.0936 µM

COc1cc(COc2cccc(-c3nn(C(C)C)c4ncnc(N)c34)c2)cc(OC)c1 [Compound 22, 3-(3-(3,5-dimethoxybenzyloxy)phenyl)-1-isopropyl-1H-pyrazolo[3,4-d]pyrimidin-4-amine]
IC50 (TgCDPK1; read-out: IC50 (μM) TgCDPK1): 1.14 µM | IC50 (CpCDPK1; [1]): > 3 µM

CC(C)n1nc(-c2cncnc2)c2c(N)ncnc21 [Compound 18, 1-isopropyl-3-(pyrimidin-5-yl)-1H-pyrazolo[3,4-d]pyrimidin-4-amine]
IC50 (TgCDPK1; read-out: IC50 (μM) TgCDPK1): > 3 µM | IC50 (CpCDPK1; [1]): > 3 µM

Nc1ncnc2c1c(Cc1cccc3ccccc13)nn2C1CCOCC1 [Compound 15, 3-(naphthalen-1-ylmethyl)-1-(tetrahydro-2H-pyran-4-yl)-1H-pyrazolo[3,4-d]pyrimidin-4-amine]
IC50 (TgCDPK1; read-out: IC50 (μM) TgCDPK1): 0.149 µM | IC50 (CpCDPK1; [1]): 0.265 µM

Nc1ncnc2c1c(Cc1cccc3ccccc13)nn2Cc1ccccc1 [Compound 5e, 1-benzyl-3-(naphthalen-1-ylmethyl)-1H-pyrazolo[3,4-d]pyrimidin-4-amine]
IC50 (TgCDPK1; read-out: IC50 (μM) TgCDPK1): 1.85 µM | IC50 (CpCDPK1; Table 3, average of three assays ± (SEM), read-out: CpCDPK1 IC50): > 3 µM | IC50 (CpCDPK1; [1]): > 3 µM

CC(C)n1nc(-c2ccnc(Cl)c2)c2c(N)ncnc21 [Compound 19, 3-(2-chloropyridin-4-yl)-1-isopropyl-1H-pyrazolo[3,4-d]pyrimidin-4-amine]
IC50 (TgCDPK1; read-out: IC50 (μM) TgCDPK1): 0.0638 µM | IC50 (CpCDPK1; [1]): 0.37 µM

COc1ccc(-c2nn(C(C)C)c3ncnc(N)c23)cc1OC(C)C [Compound 23, 3-(3-isopropoxy-4-methoxyphenyl)-1-isopropyl-1H-pyrazolo[3,4-d]pyrimidin-4-amine]
IC50 (TgCDPK1; read-out: IC50 (μM) TgCDPK1): > 3 µM | IC50 (CpCDPK1; [1]): > 3 µM

Cc1ccc(-c2nn(C(C)C)c3ncnc(N)c23)cc1 [Compound 7f, 1-isopropyl-3-p-tolyl-1H-pyrazolo[3,4-d]pyrimidin-4-amine]
IC50 (TgCDPK1; read-out: IC50 (μM) TgCDPK1): 0.013 µM | IC50 (CpCDPK1; read-out: IC50 (μM) CpCDPK1): 0.087 µM

CC(=O)N1CCC(Cn2nc(Cc3cccc4ccccc34)c3c(N)ncnc32)CC1 [Compound 5k, 1-(4-((4-amino-3-(naphthalen-1-ylmethyl)-1H-pyrazolo[3,4-d]pyrimidin-1-yl)methyl)piperidin-1-yl)ethanone]
IC50 (TgCDPK1; read-out: IC50 (μM) TgCDPK1): 0.208 µM | IC50 (CpCDPK1; read-out: IC50 (μM) CpCDPK1): 0.36 µM

NC(=O)Cn1nc(Cc2cccc3ccccc23)c2c(N)ncnc21 [Compound 5c, 2-(4-amino-3-(naphthalen-1-ylmethyl)-1H-pyrazolo[3,4-d]pyrimidin-1-yl)acetamide]
IC50 (TgCDPK1; read-out: IC50 (μM) TgCDPK1): 1.92 µM | IC50 (CpCDPK1; [1]): 2.04 µM | IC50 (CpCDPK1; read-out: CpCDPK1 IC50): 2 µM

CC(=O)N1CCC(n2nc(Cc3cccc4ccccc34)c3c(N)ncnc32)CC1 [Compound 5j, 1-(4-(4-amino-3-(naphthalen-1-ylmethyl)-1H-pyrazolo[3,4-d]pyrimidin-1-yl)piperidin-1-yl)ethanone]
IC50 (TgCDPK1; read-out: IC50 (μM) TgCDPK1): 0.091 µM | IC50 (CpCDPK1; [1]): 0.103 µM | IC50 (CpCDPK1; read-out: CpCDPK1 IC50): 0.1 µM

Nc1ncnc2c1c(Cc1cccc3ccccc13)nn2C1CCCC1 [Compound 13, 1-cyclopentyl-3-(naphthalen-1-ylmethyl)-1H-pyrazolo[3,4-d]pyrimidin-4-amine]
IC50 (TgCDPK1; read-out: IC50 (μM) TgCDPK1): 0.553 µM | IC50 (CpCDPK1; [1]): 0.894 µM

Cn1nc(Cc2cccc3ccccc23)c2c(N)ncnc21 [Compound 5a, 1-methyl-3-(naphthalen-1-ylmethyl)-1H-pyrazolo[3,4-d]pyrimidin-4-amine]
IC50 (TgCDPK1; read-out: IC50 (μM) TgCDPK1): 0.458 µM | IC50 (CpCDPK1; read-out: IC50 (μM) CpCDPK1): 0.413 µM

CC(C)n1nc(-c2cccc(Cl)c2)c2c(N)ncnc21 [Compound 7b, 3-(3-chlorophenyl)-1-isopropyl-1H-pyrazolo[3,4-d]pyrimidin-4-amine]
IC50 (TgCDPK1; read-out: IC50 (μM) TgCDPK1): 0.02 µM | IC50 (CpCDPK1; [1]): 0.115 µM | IC50 (CpCDPK1; read-out: CpCDPK1 IC50): 0.12 µM

CC(C)n1nc(-c2ccc3c(c2)CCCO3)c2c(N)ncnc21 [Compound 7w, 3-(chroman-6-yl)-1-isopropyl-1H-pyrazolo[3,4-d]pyrimidin-4-amine]
IC50 (TgCDPK1; read-out: IC50 (μM) TgCDPK1): 0.017 µM | IC50 (CpCDPK1; read-out: CpCDPK1 IC50): 0.11 µM

Cc1cc(-c2nn(C(C)C)c3ncnc(N)c23)ccc1F [Compound 7i, 3-(4-fluoro-3-methylphenyl)-1-isopropyl-1H-pyrazolo[3,4-d]pyrimidin-4-amine]
IC50 (TgCDPK1; read-out: IC50 (μM) TgCDPK1): 0.009 µM | IC50 (CpCDPK1; read-out: IC50 (μM) CpCDPK1): 0.053 µM

CC(C)n1nc(-c2cccc3ccccc23)c2c(N)ncnc21 [Compound 7o, 1-isopropyl-3-(naphthalen-1-yl)-1H-pyrazolo[3,4-d]pyrimidin-4-amine]
IC50 (TgCDPK1; read-out: IC50 (μM) TgCDPK1): 0.326 µM | IC50 (CpCDPK1; read-out: CpCDPK1 IC50): 0.62 µM
